According to patent publication US20160256511A1, “COMPOSITIONS AND METHODS FOR THE TREATMENT OR PROPHYLAXIS OF CIRCADIAN PROTEIN RELATED CONDITIONS” (IN INGREDIENTS, INC., priority 2013, published 2016):

Assays:
Type in all cases: cell-based, Porcine
Details in all cases: 24 hr, all three concentrations (1 μM; 5 μM; 20 μM)
SIRT1 = SIRT1 immunofluorescence in iPEC-1 cells treated with ursolic acid
Protocol: (§1) iPEC-1 cells were grown as a monolayer in DMEM with 10% fetal bovine serum (FBS) and the necessary supplements at 37° C. in a humidified incubator with 5% CO2. iPEC1 cells were seeded on 35 mm dishes. Experiments were initiated 48 hr after plating. Cells were treated with saline or with ursolic acid at three separate dosages (1 μM; 5 μM; or 20 μM) in the medium for 24 hr at 37° C. The cells were then washed with ice-cold PBS and fixed with 4% paraformaldehyde for 10 min at room temperature followed by permeabilization with 0.3% Triton X-100 for 10 min. After being washed with PBS three times, cells were incubated for 1 hr in PBS containing 10% normal goat serum blocking solution. The cells were subjected to immunofluorescence staining with the target specific antibodies (SIRT1, CLOCK and Bmal1) overnight at 4° C. The cells were then washed with cold PBS three times for 3 min each, and incubated with Alexa-labeled secondary antibodies (Invitrogen) at room temperature for 1 h. The cells were examined by fluorescence microscopy (a Nikon TE2000-S microscope, Nikon, Tokyo, Japan).

Bmal1 = Bmal1 immunofluorescence in iPEC-1 cells treated with ursolic acid
Protocol: as §1

CLOCK = CLOCK immunofluorescence in iPEC-1 cells treated with ursolic acid
Protocol: as §1

C[C@H]1[C@H](C)CC[C@]2(C(=O)O)CC[C@]3(C)C(=CC[C@@H]4[C@@]5(C)CC[C@H](O)C(C)(C)[C@@H]5CC[C@]43C)[C@H]12 [ursolic acid]
intensity of immunofluorescence of SIRT1 compared with controls (SIRT1): significantly induced the intensity of immunofluorescence
intensity of immunofluorescence of Bmal1 compared with controls (Bmal1): significantly induced the intensity of immunofluorescence
intensity of immunofluorescence of CLOCK compared with controls (CLOCK): significantly induced the intensity of immunofluorescence
